Data set [1] can be described thus: 1H-NMR check for disproportionation or degradation. The format is physicochemical. Particulars: large scale polymorph samples, DMSO-d6. The source says:
At large scale, a slurry of HM30181 mesylate Type A starting material in methanol at ambient conditions generated a mixture of HM30181 mesylate Type B and HM30181 mesylate Type A after 9 days (see FIG. 32). After 14 days, the slurry in methanol generated a HM30181 mesylate Type N polymorph. […] A scaled-up slurry of HM30181 mesylate Type A starting material in DMA yielded HM30181 mesylate Type E after 6 days (see FIG. 35). […] A scaled-up slurry of HM30181 mesylate Type A starting material in DMF at 50° C. yielded HM30181 mesylate Type F rather than the expected HM30181 mesylate Type G after 9 days (see FIG. 36). […] This slurry was heated in an attempt to generate HM30181 mesylate Type G. A scaled-up slurry of HM30181 mesylate Type A starting material in DMF at 100° C. yielded HM30181 mesylate Type F after 2 days (see FIG. 37). A scaled-up slurry of HM30181 mesylate Type A starting material in DMF at 150° C. yielded a previously unobserved XRPD pattern after 5 days (see FIG. 37).
By 1H-NMR, HM30181 mesylate Type E contained DMA, HM30181 mesylate Type F contains DMF, and HM30181 mesylate Type N contains MeOH.
Proton NMR were obtained using a Varian 200M™ NMR in deuterated DMSO (DMSO-d6).

Data set [2] can be described thus: XRPD of polymorphs after air-drying or vacuum-drying (solid form stability). The format is physicochemical. Particulars: for Crystallinity / XRPD pattern after air-drying: air-dried (overnight); for Crystallinity / XRPD pattern after vacuum-drying: vacuum dried overnight (80° C.). As for the experimental part: Large scale studies were performed with HM30181 mesylate Type A starting material on a 200 mg scale as described below. Solids were isolated by vacuum filtration. The wet cakes from filtration from DMA, DMF, and NMP slurries were washed with 1 mL to 2 mL methanol to remove solvents. […]
XRPD was performed using a Panalytical X'Pert3™ Powder XRPD and on a Si zero-background holder. The 2θ position was calibrated against a Panalytical™ 640 Si powder standard. Details of XRPD used in the experiments are listed below in Table 20.

Entries after “also recorded” stand apart in the source; their conditions may differ.

In the case of `COc1cc2c(cc1OC)CN(CCc1ccc(-n3nnc(-c4cc(OC)c(OC)cc4NC(=O)c4cc(=O)c5ccccc5o4)n3)cc1)CC2.CS(=O)(=O)O` [HM30181 mesylate Type C, HM30181 mesylate], in data set [1], the “Disproportionation or degradation by 1H-NMR” value is on record as “no disproportionation or degradation was detected”. For the same compound, in data set [2], the “Crystallinity / XRPD pattern after air-drying” value was “no significant change” and the “Crystallinity / XRPD pattern after vacuum-drying” value is “no loss of crystallinity was detected; also recorded: No change in crystalline pattern”.
As for `COc1cc2c(cc1OC)CN(CCc1ccc(-n3nnc(-c4cc(OC)c(OC)cc4NC(=O)c4cc(=O)c5ccccc5o4)n3)cc1)CC2.CS(=O)(=O)O` [HM30181 mesylate Type D, HM30181 mesylate], in data set [2], the “Crystallinity / XRPD pattern after air-drying” value is listed as “Some loss of crystallinity; also recorded: No change in crystalline pattern”.
Take `COc1cc2c(cc1OC)CN(CCc1ccc(-n3nnc(-c4cc(OC)c(OC)cc4NC(=O)c4cc(=O)c5ccccc5o4)n3)cc1)CC2.CS(=O)(=O)O` [HM30181 mesylate Type E, HM30181 mesylate]: in data set [1], the “Disproportionation or degradation by 1H-NMR” value is “no disproportionation or degradation was detected”. The “Crystallinity / XRPD pattern after vacuum-drying” value in data set [2] was “no loss of crystallinity; also recorded: No change in crystalline pattern”.
For `COc1cc2c(cc1OC)CN(CCc1ccc(-n3nnc(-c4cc(OC)c(OC)cc4NC(=O)c4cc(=O)c5ccccc5o4)n3)cc1)CC2.CS(=O)(=O)O` [HM30181 mesylate Type F, HM30181 mesylate], in that order: “no disproportionation or degradation was detected” and “Some change of pattern; also recorded: significant reduction in crystallinity”.
With `COc1cc2c(cc1OC)CN(CCc1ccc(-n3nnc(-c4cc(OC)c(OC)cc4NC(=O)c4cc(=O)c5ccccc5o4)n3)cc1)CC2.CS(=O)(=O)O` [HM30181 mesylate Type G, HM30181 mesylate], in data set [2], the “Crystallinity / XRPD pattern after air-drying” value is reported as “No reduction in crystallinity”.
On to `COc1cc2c(cc1OC)CN(CCc1ccc(-n3nnc(-c4cc(OC)c(OC)cc4NC(=O)c4cc(=O)c5ccccc5o4)n3)cc1)CC2.CS(=O)(=O)O` [HM30181 mesylate Type I, HM30181 mesylate], for which the “Crystallinity / XRPD pattern after air-drying” value in data set [2] is on record as “yielded HM30181 mesylate Type J”; in data set [2] (listed as Type I), “Type J on air-drying”.
`COc1cc2c(cc1OC)CN(CCc1ccc(-n3nnc(-c4cc(OC)c(OC)cc4NC(=O)c4cc(=O)c5ccccc5o4)n3)cc1)CC2.CS(=O)(=O)O` [HM30181 mesylate Type N, HM30181 mesylate]: the “Disproportionation or degradation by 1H-NMR” value in data set [1] is recorded as “no disproportionation or degradation was detected”. Further, the “Crystallinity / XRPD pattern after vacuum-drying” value in data set [2] is recorded as “some loss of crystallinity”.

(Values after US12227494B2, “Polymorphisms of HM30181 mesylate” (ATHENEX R&D, LLC, priority 2020, dated 2025).)
